According to the CheMixHub viscosity set:

Test: xn = mol fraction of the nth substance listed

CC(C)(C)O + CC(=O)N(C)C
303.15 K, 101 kPa
Conditions | viscosity [mPa·s]
x2 = 0.1094 | 2.544
x2 = 0.2069 | 2.032
x2 = 0.3062 | 1.651
x2 = 0.4037 | 1.422
x2 = 0.5026 | 1.255
x2 = 0.6154 | 1.128
x2 = 0.7028 | 1.046
x2 = 0.8064 | 0.973
x2 = 0.8954 | 0.924

Nc1ccccc1 + CC(=O)O
viscosity [mPa·s]
Conditions | 298.15 K | 308.15 K | 323.15 K
101.3 kPa, x1 = 0.0382 | 2.15 | 1.72 | 1.27
101.3 kPa, x1 = 0.0652 | 3.65 | 2.72 | 1.83
101.3 kPa, x1 = 0.0972 | 5.78 | 4.07 | 2.51
101.3 kPa, x1 = 0.132 | 8.79 | 5.69 | 3.26
101.3 kPa, x1 = 0.186 | 14.2 | 8.51 | 4.27
101.3 kPa, x1 = 0.229 | 18.5 | 10.5 | 5.14
101.3 kPa, x1 = 0.257 | 20.3 | 11.4 | 5.4
101.3 kPa, x1 = 0.286 | 20.8 | 11.6 | 5.52
101.3 kPa, x1 = 0.3 | 21.2 | 11.8 | 5.58
101.3 kPa, x1 = 0.333 | 20.5 | 11.6 | 5.43
101.3 kPa, x1 = 0.35 | 20.1 | 11.1 | 5.33
101.3 kPa, x1 = 0.377 | 19 | 10.7 | 5.16
101.3 kPa, x1 = 0.425 | 15.9 | 9.01 | 4.61
101.3 kPa, x1 = 0.497 | 13.5 | 7.7 | 4.03
101.3 kPa, x1 = 0.546 | 10.7 | 6.51 | 3.6
101.3 kPa, x1 = 0.675 | 6.68 | 4.48 | –
101.3 kPa, x1 = 0.799 | 5.08 | 3.61 | 2.39
101.3 kPa, x1 = 0.86 | 4.57 | 3.3 | 2.25
101.33 kPa, x1 = 0.1058 | 7.29 | – | 2.96
101.33 kPa, x1 = 0.1746 | 12.3 | – | –
101.33 kPa, x1 = 0.2824 | 21.9 | – | 5.65
101.33 kPa, x1 = 0.3086 | 21.4 | – | 5.58
101.33 kPa, x1 = 0.3408 | 20.3 | – | 5.23
101.33 kPa, x1 = 0.3878 | 18.1 | – | –
101.33 kPa, x1 = 0.5159 | 11.8 | – | 3.82

Nc1ccccc1 + CC(C)(C)O
303 K, 101.33 kPa
Conditions | viscosity [mPa·s]
x1 = 0.1 | 2.851
x1 = 0.2 | 2.363
x1 = 0.3 | 2.307
x1 = 0.4 | 2.218
x1 = 0.5 | 2.257
x1 = 0.6 | 2.305
x1 = 0.7 | 2.407
x1 = 0.8 | 2.524
x1 = 0.9 | 2.766

CC(C)(C)O + CC(C)=O
viscosity [mPa·s], 101 kPa
Conditions | x1 = 0.0784 | x1 = 0.1618 | x1 = 0.2497 | x1 = 0.3433 | x1 = 0.4398 | x1 = 0.5382 | x1 = 0.6472 | x1 = 0.7532 | x1 = 0.8729
298.15 K | 0.3321 | 0.3734 | 0.4146 | 0.4676 | 0.5414 | 0.6566 | 0.8929 | 1.304 | 2.131
303.15 K | 0.324 | 0.3649 | 0.4058 | 0.4555 | 0.514 | 0.6108 | 0.8102 | 1.186 | 1.881
308.15 K | 0.3158 | 0.3535 | 0.3941 | 0.4405 | 0.4928 | 0.583 | 0.7695 | 1.073 | 1.632

Nc1ccccc1 + CC(C)=O
298.15 K, 101 kPa
Conditions | viscosity [mPa·s]
x1 = 0.0833 | 0.3644
x1 = 0.1692 | 0.4238
x1 = 0.2591 | 0.5074
x1 = 0.3523 | 0.6194
x1 = 0.4492 | 0.7717
x1 = 0.5502 | 0.9752
x1 = 0.6556 | 1.252
x1 = 0.7653 | 1.679
x1 = 0.8805 | 2.259

CCC(O)CO (configuration not stated) + CC(C)CO
viscosity [mPa·s], 100 kPa
Conditions | x2 = 0.1 | x2 = 0.201 | x2 = 0.3 | x2 = 0.4 | x2 = 0.5 | x2 = 0.6 | x2 = 0.698 | x2 = 0.8 | x2 = 0.899
298.15 K | 37.85 | 28.47 | 21.1 | 15.45 | 10.88 | 7.762 | 6.307 | 5.182 | 3.998
303.15 K | 28.29 | 21.56 | 16.11 | 12.08 | 8.609 | 6.351 | 5.187 | 4.312 | 3.375
308.15 K | 21.44 | 16.65 | 12.67 | 9.596 | 7.019 | 5.289 | 4.334 | 3.62 | 2.873
313.15 K | 16.62 | 13.03 | 10.31 | 7.809 | 5.758 | 4.449 | 3.635 | 3.062 | 2.473
318.15 K | 13.08 | 10.42 | 8.093 | 6.339 | 4.851 | 3.692 | 3.08 | 2.621 | 2.141
323.15 K | 10.47 | 8.442 | 6.689 | 5.231 | 3.969 | 3.154 | 2.639 | 2.253 | 1.855

Nc1ccccc1 + CC(C)CO
303 K, 101.33 kPa
Conditions | viscosity [mPa·s]
x1 = 0.1 | 2.305
x1 = 0.2 | 2.138
x1 = 0.3 | 2.096
x1 = 0.4 | 2.047
x1 = 0.5 | 2.073
x1 = 0.6 | 2.172
x1 = 0.7 | 2.284
x1 = 0.8 | 2.366
x1 = 0.9 | 2.715
